Assay results as given in ChEMBL document CHEMBL3137361, “MMV Box P. falciparum screening”.

tested on: Plasmodium falciparum; assay: MMV: Growth inhibition of P. falciparum cultures was quantified using a parasite lactate dehydrogenase (LDH) assay. The cultures were diluted to 0.5% parasitemea and 2% hematocrit and subjected to each twofold serial dilutions of the compounds for 72 h (DMSO final concentration, 0.25%). After 72 h, the cultures were frozen. LDH activity of P. falciparum parasites in aliquots of freeze-thawed cultures was spectrophotometrically measured and the IC50s were determined.; format: functional, organism-based; conditions: FCR3, 72 h

COc1cccc(C2(C)Nc3ccccc3-c3nc4ccccc4n32)c1 (stereo not given) and CC1(c2ccccc2)Nc2ccccc2-c2nc3ccccc3n21 (stereo not given) are within 1.5-fold of each other in IC50: 388 nM for the first, 394 nM for the second.

First: Oc1c(CN2CCN(c3ccccc3F)CC2)cc(Br)c2cccnc12
Second: Cc1ccc(C)c(Cn2c(N3CCC(C(=O)NCc4cccs4)CC3)nc3ccccc32)c1
The IC50 of the first is 2.3-fold lower: 771 nM for the first, 1810 nM for the second.

Going from COc1ccc(C(=O)C2CC2c2ccc(Cl)cc2)cc1 (stereo not given) to COc1ccc(C(O)(CCC(C)C)C(CN2CCOCC2)c2ccc(Cl)cc2)cc1 (stereo not given), the IC50 rises from 2700 nM to over 5000 nM.

FC(F)(F)c1cccc(Nc2nc(-c3ccccc3)nc3ncccc23)c1 and FC(F)(F)c1cccc(Nc2nc3ccccc3nc2Nc2cccc(C(F)(F)F)c2)c1 are within 1.5-fold of each other in IC50: 905 nM for the first, 1160 nM for the second.

Going from CCn1nc(-c2ccc(C(=O)OC)cc2)nc2c(=O)n(C)c(=O)nc1-2 to COc1ccc2sc(N(Cc3cccnc3)C(=O)c3ccc(C#N)cc3)nc2c1, the IC50 rises from 1510 nM to over 5000 nM. The first is the more potent here.

Compared with OC(CNC1CCCCC1)Cn1c2ccc(I)cc2c2cc(I)ccc21 (stereo not given), OC(CNCC1CCCO1)Cn1c2ccc(Cl)cc2c2cc(Cl)ccc21 (stereo not given) is 2.1-fold higher in IC50: 137 nM for the first, 291 nM for the second. The first is the more potent here.

First: Brc1ccc(Nc2nc3ccccc3nc2Nc2ccc(Br)cc2)cc1
Second: COc1ccc(Nc2nc(NCc3ccccc3)c3ccccc3n2)cc1
The IC50 of the first is 7.6-fold higher: 1560 nM for the first, 204 nM for the second. The second is the more potent here.

Going from Cc1ccc(Nc2nc(-c3ccccn3)cs2)cc1 to O=C(Nc1nc(-c2ccccn2)cs1)c1ccccc1Br, the IC50 rises from 1430 nM to 2720 nM (1.9-fold). The first is the more potent here.

Going from O=C(Nc1cccc(C(F)(F)F)c1)c1cc(Cl)ccc1O to CCC(O)c1ccc(Br)cc1NC(=O)c1cccc(Cl)c1 (stereo not given), the IC50 falls from 3620 nM to 1330 nM (2.7-fold).

First: COc1ccc(C=C2SC(=N)N(c3ccccc3OC)C2=O)cc1
Second: O=c1nc(C=Cc2ccc(Cl)cc2)oc2ccccc12
The IC50 of the first is lower: 287 nM for the first, over 5000 nM for the second.

Going from OC(CNCc1ccccc1)Cn1c2ccccc2c2ccccc21 (stereo not given) to c1ccc(CNc2nc(Nc3ccccc3)nc3ccccc23)cc1, the IC50 falls from 717 nM to 430 nM (1.7-fold).

First: CSc1ccccc1C(=O)Nc1nc(-c2ccccn2)cs1
Second: OC1=C2C(=Nc3ccccc3SC2c2ccccc2)c2ccccc21 (stereo not given)
The IC50 of the first is 6.4-fold higher: 2160 nM for the first, 337 nM for the second.

Going from O=C(NCC1Cc2cccc(-c3ccncc3)c2O1)c1csc2c1CCCC2 (stereo not given) to O=C(Nc1ccc(N2CCCCC2)c(Cl)c1)c1ccc(Br)o1, the IC50 falls from over 5000 nM to 1090 nM.

CCCCC(O)(c1ccc(Cl)cc1)C(CN1CCOCC1)c1ccc(Cl)cc1 (stereo not given) and CCCCCCC(O)(c1ccc(F)cc1)C(CN1CCOCC1)c1ccccc1 (stereo not given) cannot be ordered by IC50: over 5000 nM for the first, over 5000 nM for the second.

Going from O=C1c2ccccc2C2=Nc3ccccc3SC(c3cccc(F)c3)C12 (stereo not given) to COc1ccccc1NC1=C(N2CCCCC2)C(=O)c2ccccc2C1=O, the IC50 falls from 708 nM to 50 nM (14-fold). The second is the more potent here.

First: CC(C)(C)c1ccc2c(c1)CN(Cc1ccc(Cl)cc1)CO2
Second: COCCNCC(O)Cn1c2ccc(Cl)cc2c2cc(Cl)ccc21 (stereo not given)
The IC50 of the first is 7.8-fold lower: 35.5 nM for the first, 277 nM for the second.

Going from O=C(Nc1ccc(Cl)c(Cl)c1)Nc1ccc(Cl)c(Cl)c1 to OCCNc1nc(Nc2ccc(Cl)c(Cl)c2)nc2ccccc12, the IC50 falls from 2020 nM to 274 nM (7.4-fold).

First: Cc1cc(Nc2ccc(OCc3ccccc3)cc2)nc2cc(O)ccc12
Second: CCc1ccc(Nc2cc(C)c3ccc(O)cc3n2)cc1
The IC50 of the first is 1.7-fold higher: 127 nM for the first, 76.7 nM for the second.

First: O=c1nc(C=Cc2ccc(Br)cc2)oc2ccccc12
Second: CN(C)c1ccc(C(O)(c2ccc(N(C)C)cc2)c2ccc(N(C)C)cc2)cc1 [METHYLROSANILINE]
The IC50 of the first is higher: over 5000 nM for the first, 47.3 nM for the second. The second is the more potent here.

Going from CC(C)(C)CC(C)(C)NCC(O)COc1ccc(Cl)cc1Cl (stereo not given) to CCOc1cccc2sc(N(Cc3cccnc3)C(=O)C3CCCCC3)nc12, the IC50 rises from 544 nM to over 5000 nM.
